Assay [1] in a line: inhibitors of NFkB activation in CF airway cells, SAR follow-up, KKLEB cells, panel, IL8 HTRF, NFkB-GFP (AID 651592).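 Note: immortalized cystic fibrosis airway epithelial KKLEB cells with an NF-kB GFP reporter.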 The note with it: PAF/TNFa-induced NFkB-GFP / IL8 HTRF, CF-PAF assay.
For assay [2], the target named is Interleukin-8 (Homo sapiens) (UniProt P10145). The description is as above. The conditions noted are these: PAF/TNFa-induced NFkB-GFP / IL8 HTRF.
The subject of a further assay is IL8. Described as above. The conditions noted are these: PAF/TNFa-induced NFkB-GFP / IL8 HTRF, mean of runs, mean IC50 across panel replicates.
Where [3] appears, read: mean of runs, mean IC50 across panel replicates.

These results are taken from PubChem BioAssay AID651592 (Sanford-Burnham Center for Chemical Genomics, 2012).

Where only a bound is given, the exact number is not on record here.

Interleukin-8 (Homo sapiens), sequence (P10145 whole entry, looked up): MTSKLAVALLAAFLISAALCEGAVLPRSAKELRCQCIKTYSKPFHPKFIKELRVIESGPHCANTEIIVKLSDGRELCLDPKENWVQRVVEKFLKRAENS

For the molecule `O=C(Nc1ccc(N2CCN(C(=O)c3ccccc3)CC2)cc1)c1cccnc1`, the concentration for half-maximal inhibition (IC50) was 42.9 µM in assay [1] (setting [3]); 17 µM in assay [1] (run 1); 20.7 µM in assay [1] (run 2); 21.9 µM in assay [1] (run 3); above 66 µM in assay [1] (run 4); above 66 µM in assay [1] (run 5). Further, the IC50 in assay [1] (run 6) was above 66 µM; in assay [2] (IL8, PAF-induced, run 1), above 66 µM; in assay [2] (IL8, PAF-induced, run 2), above 66 µM; in assay [2] (IL8, PAF-induced, run 3) it was 7.51 µM; in assay [2] (IL8, PAF-induced, run 4), above 66 µM; in assay [2] (IL8, PAF-induced, run 5) it was above 66 µM. The IC50 in assay [2] (IL8, PAF-induced, run 6) is 36.4 µM; in assay [2] (IL8, TNFa-induced, run 1), above 66 µM; in assay [2] (IL8, TNFa-induced, run 2), above 66 µM; in assay [2] (IL8, TNFa-induced, run 3) it was above 66 µM; in assay [2] (IL8, TNFa-induced, run 4) it was above 66 µM; in assay [2] (IL8, TNFa-induced, run 5), above 66 µM. Further, the IC50 in assay [2] (IL8, TNFa-induced, run 6) is above 66 µM; in the assay on IL8 (PAF-induced), 40.3 µM; in the assay on IL8 (TNFa-induced), above 66 µM.
Take `CCOc1ccc(NCc2cc3c(C(C)(C)C)nn(-c4ccccc4)c3[nH]c2=O)cc1`: the IC50 in assay [1] (setting [3]) was 25.5 µM; in assay [1] (run 1), 12.8 µM; in assay [1] (run 2), 20.1 µM; in assay [1] (run 3), 22.3 µM; in assay [1] (run 4), above 66 µM; in assay [1] (run 5), 13 µM. Further, the IC50 in assay [1] (run 6) came out at 19 µM; in assay [2] (IL8, PAF-induced, run 1) it was 2.61 µM; in assay [2] (IL8, PAF-induced, run 2), 3.3 µM; in assay [2] (IL8, PAF-induced, run 3), 3.37 µM; in assay [2] (IL8, PAF-induced, run 4), 4.49 µM; in assay [2] (IL8, PAF-induced, run 5) it was 4.57 µM. Also, the 50% inhibitory concentration (IC50) in assay [2] (IL8, PAF-induced, run 6) was 5.68 µM; in assay [2] (IL8, TNFa-induced, run 1), above 66 µM; in assay [2] (IL8, TNFa-induced, run 2) it was above 66 µM; in assay [2] (IL8, TNFa-induced, run 3), above 66 µM; in assay [2] (IL8, TNFa-induced, run 4), above 66 µM; in assay [2] (IL8, TNFa-induced, run 5), above 66 µM. The IC50 was above 66 µM in assay [2] (IL8, TNFa-induced, run 6); 4 µM in the assay with IL8 (PAF-induced); above 66 µM in the assay on IL8 (TNFa-induced).
Take `O=C(Nc1ccc(N2CCN(C(=O)c3ccccc3)CC2)cc1)c1ccncc1`: the IC50 in assay [1] (setting [3]) was 39.7 µM; in assay [1] (run 1), 32.7 µM; in assay [1] (run 2), 38.2 µM; in assay [1] (run 3) it was 48.1 µM; in assay [1] (run 4), above 66 µM; in assay [1] (run 5), above 66 µM. Besides, the half-maximal inhibitory concentration (IC50) in assay [1] (run 6) was above 66 µM; in assay [2] (IL8, PAF-induced, run 1) it was above 66 µM; in assay [2] (IL8, PAF-induced, run 2) it was above 66 µM; in assay [2] (IL8, PAF-induced, run 3), 4.58 µM; in assay [2] (IL8, PAF-induced, run 4) it was above 66 µM; in assay [2] (IL8, PAF-induced, run 5), above 66 µM. For the same molecule, the IC50 in assay [2] (IL8, PAF-induced, run 6) was above 66 µM; in assay [2] (IL8, TNFa-induced, run 1), above 66 µM; in assay [2] (IL8, TNFa-induced, run 2), above 66 µM; in assay [2] (IL8, TNFa-induced, run 3) it was above 66 µM; in assay [2] (IL8, TNFa-induced, run 4), above 66 µM; in assay [2] (IL8, TNFa-induced, run 5), above 66 µM. The half-maximal inhibitory concentration (IC50) was above 66 µM in assay [2] (IL8, TNFa-induced, run 6); 55.8 µM with IL8 (PAF-induced); above 66 µM in the assay with IL8 (TNFa-induced).
`O=C(Nc1ccc(N2CCN(C(=O)c3ccccc3Cl)CC2)cc1)c1ccccn1`: the IC50 is 39.5 µM in assay [1] (setting [3]); 8.15 µM in assay [1] (run 1); 14.4 µM in assay [1] (run 2); 16.5 µM in assay [1] (run 3); above 66 µM in assay [1] (run 4); above 66 µM in assay [1] (run 5). Besides, the IC50 in assay [1] (run 6) is above 66 µM; in assay [2] (IL8, PAF-induced, run 1) it was above 66 µM; in assay [2] (IL8, PAF-induced, run 2), 12.5 µM; in assay [2] (IL8, PAF-induced, run 3), 19.7 µM; in assay [2] (IL8, PAF-induced, run 4) it was 3.66 µM; in assay [2] (IL8, PAF-induced, run 5) it was 5.84 µM. In addition, the half-maximal inhibitory concentration (IC50) in assay [2] (IL8, PAF-induced, run 6) is 53.2 µM; in assay [2] (IL8, TNFa-induced, run 1) it was above 66 µM; in assay [2] (IL8, TNFa-induced, run 2) it was above 66 µM; in assay [2] (IL8, TNFa-induced, run 3), above 66 µM; in assay [2] (IL8, TNFa-induced, run 4), above 66 µM; in assay [2] (IL8, TNFa-induced, run 5) it was above 66 µM. Besides, the concentration for half-maximal inhibition (IC50) in assay [2] (IL8, TNFa-induced, run 6) is above 66 µM; in the assay on IL8 (PAF-induced), 19 µM; with IL8 (TNFa-induced) it was above 66 µM.
Regarding `CCOc1ccc(NCc2cc3c(-c4ccc(F)cc4)nn(-c4ccccc4)c3[nH]c2=O)cc1`, the 50% inhibitory concentration (IC50) in assay [1] (setting [3]) was found to be 9.11 µM; in assay [1] (run 1), 14.2 µM; in assay [1] (run 2), 15.7 µM; in assay [1] (run 3) it was 18.1 µM; in assay [1] (run 4) it was 1.81 µM; in assay [1] (run 5), 2.36 µM. For the same molecule, the IC50 is 2.48 µM in assay [1] (run 6); 0.434 µM in assay [2] (IL8, PAF-induced, run 1); 0.974 µM in assay [2] (IL8, PAF-induced, run 2); 1.05 µM in assay [2] (IL8, PAF-induced, run 3); 0.181 µM in assay [2] (IL8, PAF-induced, run 4); 0.244 µM in assay [2] (IL8, PAF-induced, run 5). Moreover, the IC50 in assay [2] (IL8, PAF-induced, run 6) was 0.248 µM; in assay [2] (IL8, TNFa-induced, run 1), above 66 µM; in assay [2] (IL8, TNFa-induced, run 2), above 66 µM; in assay [2] (IL8, TNFa-induced, run 3), above 66 µM; in assay [2] (IL8, TNFa-induced, run 4), above 66 µM; in assay [2] (IL8, TNFa-induced, run 5), above 66 µM. Further, the concentration for half-maximal inhibition (IC50) in assay [2] (IL8, TNFa-induced, run 6) is 14.8 µM; in the assay with IL8 (PAF-induced) it was 0.522 µM; in the assay on IL8 (TNFa-induced), 57.5 µM.
